Source: patent US20210330611A1, “THERAPY FOR NEUROLOGICAL DISEASES/DISORDERS” (priority 2020, published 2021)
Where two headings read alike, the source gives them in different places.

Key:
[1] = test system: fibrin-induced microglia activation; assay: Image-based assay of fibrin-induced microglia activation (HTS and dose response); format: cell-based, rat; settings: for inhibition at 10 µM: Rattus norvegicus, Microglia, read-out: Fibrin % inhibition
[2] = test system: LPS-induced microglia activation; assay: Image-based assay of LPS-induced microglia activation (HTS and dose response); format: cell-based, rat; settings: for inhibition at 10 µM: Rattus norvegicus, Microglia, 48 h, read-out: LPS % inhibition
[3] = test system: fibrin- and LPS-induced microglia activation; assay: cells; format: cell-based, rat
[4] = test system: primary rat microglia;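 as to Fibrin % cell toxicity: share of dead cells sized under 150 µm2 at 10 µM in fibrin-stimulated microglia HTS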
[5] = test system: primary rat microglia; remark: listed apart in the source;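 as to Fibrin % cell toxicity: share of dead cells sized under 150 µm2 at 10 µM in fibrin-stimulated microglia HTS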
[6] = primary microglia HTS, fibrin stimulation, activation = cell size >800 μm2
[7] = primary microglia HTS, LPS stimulation, activation = cell size >800 μm2
[8] = quadrant by fibrin and LPS inhibition in HTS of 1907 compounds
[9] = primary microglia HTS, fibrin stimulation, increased cell size (>800 μm^2) as marker of activation
[10] = primary microglia HTS, LPS stimulation, increased cell size (>800 μm^2) as marker of activation

Structure (SMILES) | Quadrant (FIG. 5b) [3] | inhibition at 10 µM [1] [%] | inhibition at 10 µM [2] [%] | Fibrin % cell toxicity ([4]; rat) [%] | LPS % cell toxicity ([5]; rat) [%] | inhibition at 10 µM [1, 6] [%] | inhibition at 10 µM [2, 7] [%] | Quadrant (FIG. 5b) [3, 8] | further results
C[C@@H]1C[C@H]2[C@@H]3C[C@H](F)C4=CC(=O)C=C[C@]4(C)[C@@]3(F)[C@@H](O)C[C@]2(C)[C@@]1(O)C(=O)COC(=O)C(C)(C)C [Flumethazone pivalate, reference compound] | Q2 |  |  |  |  |  |  |  | Fibrin % inhibition [1]: 101%; Fibrin Selectivity [1]: 4; Fibrin Selectivity (LOG10) [1]: 0.58; fib specificity [1]: 1.0; fib_HS [1]: −0.23; IC50 ([1]; read-out: Fibrin IC50): < 0.001 µM; IC50 ([1]; read-out: Fibrin IC50 (uM) (Suppl. Table 7)): < 0.001 µM; LPS % inhibition [2]: 94%; LPS specificity [2]: 1.0; LPS_HS [2]: 0.00; IC50 ([2]; read-out: LPS IC50): 0.004 µM; IC50 ([2]; read-out: LPS IC50 (uM) (Suppl. Table 7)): 0.004 µM; Activity [3]: fib/LPS; Cherry-picked Hit (Suppl. Table 7) [3]: HIT (key: HIT: Hits were defined as molecules that exhibited greater than 50% inhibition of either fibrin or LPS activation); Hit [3]: HIT (key: HIT: Hits were defined as molecules that exhibited greater than 50% inhibition of either fibrin or LPS activation); Fibrin % cell toxicity [4]: 1%; IC50 [4]: > 20000 nM; IC50 [5]: > 20000 nM; LPS % cell toxicity [5]: 3%
Fc1ccc(C(c2ccc(F)cc2)N2CCN(C/C=C/c3ccccc3)CC2)cc1 [Flunarizine] | Q4 | -10 | 12 | 1 | 1 |  |  |  | 
OCCN1CCN(CCCN2c3ccccc3Sc3ccc(C(F)(F)F)cc32)CC1 [Fluphenazine] | Q4 | 7 | 20 | 1 | 0 |  |  |  | 
CC(C)C(=O)Nc1ccc([N+](=O)[O-])c(C(F)(F)F)c1 [Flutamide] |  |  |  | 1 | 0 | 15 | 23 | Q4 | 
COc1ccc(CC(C)NCC(O)c2ccc(O)c(NC=O)c2)cc1 (stereo not drawn) [Formoterol] | Q4 | -6 | 32 | 1 | 1 |  |  |  | 
O=C(O)/C=C/C(=O)O [Fumaric Acid] | Q4 | 19 | 17 | 1 | 0 |  |  |  | 
CN(C)c1ccc(C(=C2C=CC(=[N+](C)C)C=C2)c2ccc(N(C)C)cc2)cc1 [Gentian Violet] |  |  |  | 38 | 73 |  |  | Q2 | inhibition at 10 µM [1, 9]: 117%; inhibition at 10 µM [2, 10]: 118%
O=C(OCC(O)CO)c1ccccc1Nc1ccnc2cc(Cl)ccc12 (stereo not drawn) [Glafenine] |  |  |  | 1 | 0 | 8 | 18 | Q4 | 
CCC1=C(C)CN(C(=O)NCCc2ccc(S(=O)(=O)NC(=O)N[C@H]3CC[C@H](C)CC3)cc2)C1=O [Glimepiride] |  |  |  | 1 | 0 | 0 | 21 | Q4 | 
N[C@@H](CCC(=O)N[C@@H](CS)C(=O)NCC(=O)O)C(=O)O [Glutathione] | Q4 | -5 | 13 | 1 | 0 |  |  |  | 
COC1=CC(=O)C[C@@H](C)[C@]12Oc1c(Cl)c(OC)cc(OC)c1C2=O [Griseofulvin] |  |  |  | 1 | 0 | 9 | 13 | Q4 | 
O=C(CCCN1CCC(O)(c2ccc(Cl)cc2)CC1)c1ccc(F)cc1 [Haloperidol] | Q4 | -22 | 12 | 1 | 1 |  |  |  | 
FC(F)(F)C(Cl)Br (stereo not drawn) [Halothane] |  |  |  | 1 | 0 | 17 | 17 | Q4 | 
CC1CC(OC(=O)c2ccccc2O)CC(C)(C)C1 (stereo not drawn) [Homosalate] |  |  |  | 1 | 1 | -3 | 18 | Q4 | 
NNc1nncc2ccccc12 [Hydralazine] | Q4 | -13 | 22 | 1 | 0 |  |  |  | 
Oc1ccc(O)cc1 [Hydroquinone] | Q4 | 14 | 12 | 1 | 0 |  |  |  | 
CC(=O)[C@]1(O)Cc2c(O)c3c(c(O)c2[C@@H](O[C@H]2C[C@H](N)[C@H](O)[C@H](C)O2)C1)C(=O)c1ccccc1C3=O.Cl [Idarubicin, Idarubicin Hydrochloride] |  |  |  |  |  |  |  | Q2 | Fibrin % inhibition [1, 9]: 106%; LPS % inhibition [2, 10]: 106%; Fibrin % cell toxicity [4]: 90%; LPS % cell toxicity [5]: 40%

Structure (SMILES) | Quadrant (FIG. 5b) [3] | inhibition at 10 µM [1] [%] | inhibition at 10 µM [2] [%] | Fibrin % cell toxicity ([4]; rat) [%] | LPS % cell toxicity ([5]; rat) [%] | inhibition at 10 µM [1, 6] [%] | inhibition at 10 µM [2, 7] [%] | Quadrant (FIG. 5b) [3, 8] | further results
COC1=C(OC)C(=O)C(CCCCCCCCCCO)=C(C)C1=O [Idebenone] |  |  |  | 1 | 0 | -24 | 2 | Q4 | 
CC(C)(C)NC(=O)[C@@H]1CN(Cc2cccnc2)CCN1C[C@@H](O)C[C@@H](Cc1ccccc1)C(=O)N[C@H]1c2ccccc2C[C@H]1O [Indinavir] | Q4 |  |  | 1 | 0 | -22 | 5 |  | 
COc1ccc2c(c1)c(CC(=O)O)c(C)n2C(=O)c1ccc(Cl)cc1 [Indomethacin] |  |  |  | 0 | 0 | -56 | 13 | Q4 | 
O=C(NCC(O)CO)c1c(I)c(C(=O)NCC(O)CO)c(I)c(N(CCO)C(=O)CO)c1I (stereo not drawn) [Ioversol] | Q4 | -1 | 18 | 1 | 1 |  |  |  | 
CC(C)NNC(=O)c1ccncc1 [Iproniazid] |  |  |  | 1 | 0 | -44 | 10 | Q4 | 
CC(C)NCC(O)c1ccc(O)c(O)c1 (stereo not drawn) [Isoprenaline] |  |  |  | 0 | 0 | 29 | 37 | Q4 | 
CC1=C(/C=C/C(C)=C/C=C/C(C)=C\C(=O)O)C(C)(C)CCC1 [Isotretinoin] |  |  |  | 13 | 1 |  |  | Q2 | inhibition at 10 µM [1, 9]: 112%; inhibition at 10 µM [2, 10]: 55%
NC[C@H]1O[C@H](O[C@H]2[C@H](O)[C@@H](O[C@H]3O[C@H](CO)[C@@H](O)[C@H](N)[C@H]3O)[C@H](N)C[C@@H]2N)[C@H](O)[C@@H](O)[C@@H]1O.O=S(=O)(O)O [Kanamycin Sulfate, Kanamycin A Sulfate] | Q4 |  |  |  |  |  |  |  | Fibrin % inhibition [1]: −13%; LPS % inhibition [2]: 20%; Fibrin % cell toxicity [4]: 0%; LPS % cell toxicity [5]: 1%
CC(=O)N1CCN(c2ccc(OCC3COC(Cn4ccnc4)(c4ccc(Cl)cc4Cl)O3)cc2)CC1 (stereo not drawn) [Ketoconazole] | Q4 | -57 | -1 | 0 | 0 |  |  |  | 
N[C@@H](CC(=O)O)C(=O)O [L-aspartic Acid, Aspartic Acid (I)] |  |  |  |  |  |  |  | Q4 | Fibrin % inhibition [1, 6]: 5%; LPS % inhibition [2, 7]: 13%; Fibrin % cell toxicity [4]: 1%; LPS % cell toxicity [5]: 1%
NC(=O)CC[C@H](N)C(=O)O [L-glutamine, Glutamine (I)] |  |  |  |  |  |  |  | Q4 | Fibrin % inhibition [1, 6]: 4%; LPS % inhibition [2, 7]: 14%; Fibrin % cell toxicity [4]: 0%; LPS % cell toxicity [5]: 0%
CC(CCc1ccccc1)NCC(O)c1ccc(O)c(C(N)=O)c1 (stereo not drawn) [Labetalol] | Q4 | 32 | 30 | 1 | 1 |  |  |  | 
CC(O)C(=O)O (stereo not drawn) [Lactic Acid] | Q4 | 0 | 14 | 1 | 1 |  |  |  | 
N#Cc1ccc(C(c2ccc(C#N)cc2)n2cncn2)cc1 [Letrozole] |  |  |  | 1 | 0 | 15 | 16 | Q4 | 
c1ccc([C@H]2CN3CCSC3=N2)cc1 [Levamisole] | Q4 | -15 | 12 | 0 | 0 |  |  |  | 
N[C@@H](Cc1ccc(O)c(O)c1)C(=O)O [Levodopa] |  |  |  | 1 | 0 | 17 | -5 | Q4 | 
